Laboratory results published in patent publication US20230108934A1, “Stabilizing Camptothecin Pharmaceutical Compositions” (Ipsen Biopharm Ltd., priority 2015, published 2023).
Where two headings read alike, the source gives them in different places.

Assays:
[1] = Solubility determination of irinotecan sucrosofate in water; format: physicochemical; details: deionized water, 4-6° C., 22 hours
Method: An amount of 1.64 g of irinotecan hydrochloride trihydrate was added to 160 mL of water acidified with 0.008 mL of 1 N HCl, and heated on a 65° C. water bath with stirring until the drug was dissolved. Five mL of 0.46 M (based on sulfate concentration) triethylammonium sucrosofate were added with intensive stirring, and stirred for five minutes more. […] The precipitate was separated by centrifugation, and the supernatant solution was discarded. The pellet was resuspended in five volumes of deionized water, and precipitated by centrifugation; this washing step was repeated two more times until the pH of the suspension was about 5.8. […] An aliquot of the product was solubilized in 1 N HCl and analyzed for irinotecan (by spectrophotometry at 365 nm in 70% aqueous isopropanol-0.1 N HCl) and for sulfate after hydrolysis in a diluted (1:4) perchloric acid using a barium sulfate turbidimetric assay. […] The samples were incubated with agitation at 4-6° C. for 22 hours, the solid material was removed by centrifugation for 10 min at 14000 g, and the supernatant fluid was analyzed for irinotecan by spectrophotometry.

[2] = cited from earlier work

## CCc1c2c(nc3ccc(OC(=O)N4CCC(N5CCCCC5)CC4)cc13)-c1cc3c(c(=O)n1C2)COC(=O)[C@]3(O)CC [irinotecan sucrosofate]
[1]; final drug salt concentration 0.93 mg/mL
  concentration of irinotecan in solution: 58.9±0.90 micro-g/mL
[1]; final drug salt concentration 1.85 mg/mL
  concentration of irinotecan in solution: 63.2±0.6 micro-g/mL
[1]; final drug salt concentration 3.71 mg/mL
  concentration of irinotecan in solution: 63.4±1.3 micro-g/mL

## CCc1c2c(nc3ccc(OC(=O)N4CCC(N5CCCCC5)CC4)cc13)-c1cc3c(c(=O)n1C2)COC(=O)[C@]3(O)CC [irinotecan]
[2]; pH 6.0
  irinotecan in the more active lactone form: about 85%
[2]; pH 6.5
  irinotecan in the more active lactone form: about 65%
[2]; pH 7.5
  irinotecan in the more active lactone form: about 15%
